In patent publication US20260055381A1, “PROTEIN, POLYNUCLEOTIDE, EXPRESSION VECTOR, TRANSFORMANT, PLASMALOGEN-CONTAINING COMPOSITION, AND METHOD FOR PRODUCING PLASMALOGEN” (INSTITUTE OF RHEOLOGICAL FUNCTION OF FOOD CO., LTD., priority 2022, published 2026) one finds plasmalogen synthesis activity data, which are given here for one substance.

This experiment is described as follows: Production of plasmalogen in suis plsA-transformed E. coli (phospholipid by HPLC-ELSD, aldehyde after acid hydrolysis). As to conditions: in aerobically grown E. coli. The protocol: After thawing the bacterial cells, the total weight of the cells was measured. After 1 mL of water was added to and mixed with the bacterial cells, 3.75 mL of chloroform/methanol (1:2, v/v) was added thereto, and the resulting mixture was mixed. The mixture was subjected to sonication for 10 minutes, and then left to stand at room temperature for 30 minutes. After adding 1.25 mL chloroform to the mixture, 1.25 mL water was added thereto. After performing centrifugation, the chloroform layer was transferred to a glass tube, and the remaining aqueous layer was subjected to re-extraction with 2 mL of chloroform. The resulting combined chloroform layer was dried under nitrogen gas, and resuspended in hexane/isopropanol (3:2, v/v) to a bacterial cell concentration of 120 mg/mL, followed by filtration through a 0.45-μm filter. After injecting 10 μL of the bacterial cell suspension into high-performance liquid chromatography (HPLC), detection was performed by an evaporative light-scattering detector (ELSD).
Lipid standard solutions with different concentrations were also detected by HPLC-ELSD. A calibration curve was prepared based on the peak area at each concentration, and the amount of phospholipids was calculated from the area ratio of the peak corresponding to phospholipids obtained from the E. coli with a retention time of 10 to 20 minutes. […]

“suis PlsA protein: PlsA protein of 1639 amino acids of SEQ ID NO:2, from B. longum suis subspecies”: the plasmalogen synthesis activity entry is “shown to have a plasmalogen synthesis activity”.
